In patent US12697325B2 (TENNOR THERAPEUTICS (SUZHOU) LIMITED, priority 2021, dated 2026):

Test system: Acinetobacter baumannii clinical strains
Assay: Information of drug resistance of 10 clinical strains
Type: cell-based
Parameters: key: S: Drug Susceptible; I: Drug Intermediate; R: Drug Resistant

Row | Molecule | Drug resistance (strain TNP041702) | Drug resistance (strain TNP041703) | Drug resistance (strain TNP041704) | Drug resistance (strain TNP041705) | Drug resistance (strain TNP041706) | Drug resistance (strain TNP041707) | Drug resistance (strain TNP041708) | Drug resistance (strain TNP041709) | Drug resistance (strain TNP041710) | Drug resistance (strain TNP041711)
1 | CC(C)(O/N=C(\C(=O)N[C@@H]1C(=O)N2C(C(=O)[O-])=C(C[n+]3ccccc3)CS[C@H]12)c1csc(N)n1)C(=O)O [Ceftazidime] | R | R | R | R | R | R | R | R | R | R
2 | CO/N=C(\C(=O)N[C@@H]1C(=O)N2C(C(=O)O)=C(COC(N)=O)CS[C@H]12)c1ccco1 [Cefuroxime] | R | R | R | R | R | R | R | R | R | R
3 | C[C@@H](O)[C@H]1C(=O)N2C(C(=O)O)=C(SCCN=CN)C[C@H]12 [Imipenem] | R | R | R | R | R | R | R | R | R | R
4 | C[C@@H](O)[C@H]1C(=O)N2C(C(=O)O)=C(S[C@@H]3CN[C@H](C(=O)N(C)C)C3)[C@H](C)[C@H]12 [Meropenem] | R | R | R | R | R | R | R | R | R | R
5 | CCN1CCN(C(=O)N[C@@H](C(=O)N[C@@H]2C(=O)N3[C@@H]2SC(C)(C)[C@@H]3C(=O)O)c2ccccc2)C(=O)C1=O [Piperacillin] | R | R | R | R | R | R | R | R | R | R
6 | Gentamicin | R | R | R | R | S | R | R | R | R | R
